pIC50: −log10 of the molar value. “Also recorded” adds a separate entry of the source.
How the values were obtained:
[1] = tested on: Ehrlich Ascites Tumor (EAT); assay: Anti tumor activity on solid Ehrlich Ascites Tumor (EAT) bearing mice; format: in vivo; settings: for % Tumor growth inhibition / Tumor Weight (mg) Mean ± SE: day 13; for mortality of test animals: EAT bearing mice
From the text: (§1) Non-inbred swiss albino mice from an in-house colony were used in the present study. The breeding and experimental animals were housed in standard size polycarbonate cages providing internationally recommended space for each animal. Animals were fed balanced mice feed supplied by MIs Ashirwad Industries, Chandigarh (India) and autoclaved water was available ad libitum. Animals were cared as per the guide for the care and use of laboratory animals (1996), ILAR, Washington D.C. They were housed in controlled conditions of temperature (23±2° C.), humidity (50-60%) and 12:12 hrs of light: dark cycle. The study and the number of animals used were approved by the institutional animal ethics committee, IIIM, Jammu, India. The study was conducted as per the protocols of National Cancer Institute (NCl), USA (Geran et al., 1972).
Parthenin and its derivative Compound-17 were evaluated against solid Ehrlich Ascites Tumor (EAT) models at different doses. A standard procedure for experiment was as followed:
Animals of the same sex weighing 20±3 g were injected 1×10^7 cells collected from the peritoneal cavity of non-inbred swiss mice, bearing 8-10 days old tumor cells, into the right thigh, intramuscularly (on Day 1). On next day animals were randomized and divided into test groups (7 animals in each test group) and one tumor control group (10 animals). Test groups were treated with different doses of Parthenin (10 mg/kg, 25 mg/kg and 50 mg/kg) and its derivative Compound-17 (10 mg/kg, 25 mg/kg and 50 mg/kg, 100 mg/kg and 200 mg/kg) suspension in 1% gum acacia in, their respective group intraperitonealy for nine consecutive days. Another test group was administered 5-FU @ 22 mg/kg i.p and served as positive control. The tumor contra group was similarly administered normal saline (0.2 ml i.p). The percent tumor growth-inhibition was measured on day 13 with respect to their tumor weight (Geran et al., 1972): Shortest and longest diameters of the tumor mass were measured with the help of vernier caliper and tumor weight (mg) was calculated by using following formula Tumor weight (mg)=Length (mm)×(Width (mm)^2/2 The average tumor weight for each group was calculated and the percent tumor growth inhibition in treated groups was calculated as follows: % Tumor Growth Inhibition=100×(Average tumor weight of control group−Average tumor weight of test group)/Average tumor weight of control group Anti Tumor Activity of Parthenin and its Derivative Compound-17 on Ehrlich Ascites Carcinoma (EAC)

[2] = tested on: Ehrlich Ascites Carcinoma (EAC); assay: Anti tumor activity on Ehrlich Ascites Carcinoma (EAC) bearing mice; format: in vivo; settings: for % Tumor growth inhibition / Ascitic fluid volume (ml) Mean ± SE / Tumor cells in ascitic fluid (×10^7) Mean ± SE: day 12; for mortality of test animals: EAC bearing mice
From the text: as §1
Ehrlich Ascites Carcinoma (EAC) was propagated by transplanting 1×10^7 cells from an animal bearing 8-10 days old Ehrlich Ascites Carcinoma, into the peritoneal cavity of non-inbreed swiss mice. For testing, mice of the same sex weighing 20 ±3 g bearing ascites tumor were selected. 1×10^7 cells obtained from an animal bearing 8-10 days old ascites tumor were injected into peritoneal cavity of all animals used for testing (0 Day). On next day animals were randomized and divided into test groups (7 animals in each test group) and one tumor control group (10 animals). Test groups were treated with different doses of Parthenin (10 mg/kg, 25 mg/kg and 50 mg/kg) and its derivative Compound-17 (10 mg/kg, 25 mg/kg and 50 mg/kg, 100 mg/kg and 200 mg/kg) suspension in 1% gum acacia in their respective group intraperitonealy for nine consecutive days. Another test group was administered 5 FU @ 20 mg/kg i.p and served as positive control. The tumor control group was similarly administered normal saline (0.2 ml i.p). The percent tumor growth inhibition were measured on day 12 with respect to volume of ascitic fluid and the number of tumor cells in the ascitic fluid of peritoneal cavity (Geran et al., 1972; Singh et al., 2007).
The percent tumor growth inhibition was calculated as follow. % growth inhibition=100×(Average no. of cells in control group−Average no. of cells in test group)/Average no. of cells in control group Results: […]

SW-620 = assay: In vitro cytotoxicity screening (sulphodamine B dye), SW-620; format: cell-based; settings: Homo sapiens; SW-620 colon cancer cell line
Experimental: (§2) Cells at sub confluent stage were harvested from the flask by treatment with trypsin (0.5% in PBS containing 0.02% EDTA) for determination of cytotoxicity. […] The cell suspensions of required cell density were prepared in complete growth medium with gentamycin (50 μg/ml) for determination of cytotoxicity. The cells (100 μl/well) were inoculated in 96 well tissue culture plates. The cells were allowed to grow for 24 hrs temperature of 37° C. and in a humidified atmosphere of 5% CO2 in air. Stock solution of (20 mM) of test material was prepared in DMSO. The stock solution was serially diluted with complete growth medium containing 50 μg/ml of gentamycin to obtain […] working test solutions of 1., 2, 5, 10, 50 and 100 μM.
(§3) The media were supplemented with FCS (10%), penicillin (100 Units/ml), streptomycin (100 μg/ml) and glutamine (2 mM) and cells were grown in CO2 incubator (Hera cell, Heraeus, USA) at 37° C. with 90% humidity and 5% CO2.

DU-145 = assay: In vitro cytotoxicity screening (sulphodamine B dye), DU-145; format: cell-based; settings: Homo sapiens; DU-145 prostate cancer cell line
Experimental: as §2, §3

PC-3 = assay: In vitro cytotoxicity screening (sulphodamine B dye), PC-3; format: cell-based; settings: Homo sapiens; PC-3 prostate cancer cell line
Experimental: as §2, §3

For O=c1[nH]cc(F)c(=O)[nH]1 [Compound 5-FU, 5-Fluorouracil, reference compound], the “% Tumor growth inhibition” value ([1]; 22 mg/kg i.p.) was 51.28%, the “Tumor Weight (mg) Mean ± SE” value ([1]; 22 mg/kg i.p.) was 832.28 ± 35.21 mg and the “% Tumor growth inhibition” value ([2]; 20 mg/kg i.p.) was 100%. The “Ascitic fluid volume (ml) Mean ± SE” value ([2]; 20 mg/kg i.p.) was 0 mL and the “Tumor cells in ascitic fluid (×10^7) Mean ± SE” value ([2]; 20 mg/kg i.p.) was 0 ×10^7.

Compound C=C1C(=O)O[C@@H]2[C@H]1CC[C@H](C)[C@]1(O)C=CC(=O)[C@@]21C [Parthenin] has a pIC50 (SW-620) of 4.41, a pIC50 (DU-145) of 4.51 and a pIC50 (PC-3) of 4.39. For the same compound, the “% Tumor growth inhibition” value ([1]; 10 mg/kg i.p., nine days) was 9.69%, the “Tumor Weight (mg) Mean ± SE” value ([1]; 10 mg/kg i.p., nine days) was 1542.86 ± 35.24 mg and the “mortality of test animals” value ([1]; 25 mg/kg i.p.) was “mortality of all the animals; also recorded: All animals died by 4th day”. The “mortality of test animals” value ([1]; 50 mg/kg i.p.) was “mortality of all the animals; also recorded: All animals died by 2nd day”, the “% Tumor growth inhibition” value ([2]; 10 mg/kg i.p., nine days) was 12.01% and the “Ascitic fluid volume (ml) Mean ± SE” value ([2]; 10 mg/kg i.p., nine days) was 3.92 ± 0.38 mL. For the same compound, the “Tumor cells in ascitic fluid (×10^7) Mean ± SE” value ([2]; 10 mg/kg i.p., nine days) was 74.71 ± 2.77 ×10^7, the “mortality of test animals” value ([2]; 25 mg/kg i.p.) was “mortality of all the test animals; also recorded: All animals died by 4th day” and the “mortality of test animals” value ([2]; 50 mg/kg i.p.) was “mortality of all the test animals; also recorded: All animals died by 2nd day”.

For C[C@H]1CC[C@@H]2[C@@H](OC(=O)C23CC(c2cccc(Cl)c2)N(c2ccccc2)O3)[C@]2(C)C(=O)C=C[C@@]12O (some centres unmarked) [Compound -31], the pIC50 (SW-620) was 5.21, the pIC50 (DU-145) was 5.13 and the pIC50 (PC-3) was 5.09. It also gave a melting point of 180 °C.

In the case of C[C@H]1CC[C@@H]2[C@@H](OC(=O)C23CC(c2ccc(Br)cc2)N(c2ccccc2)O3)[C@]2(C)C(=O)C=C[C@@]12O (some centres unmarked) [Compound -20], the pIC50 (SW-620) was 5.17, the pIC50 (DU-145) was 5.20 and the pIC50 (PC-3) was 5.24. For the same compound, the melting point was 185 °C.

For COc1ccc(C2CC3(ON2c2ccccc2)C(=O)O[C@@H]2[C@H]3CC[C@H](C)[C@]3(O)C=CC(=O)[C@@]23C)cc1Br (some centres unmarked) [Compound -25], the pIC50 (SW-620) was 5.17, the pIC50 (DU-145) was 5.20 and the pIC50 (PC-3) was 5.24. For the same compound, the melting point was 96 °C.

From patent US8609858B2, “Spiro derivatives of parthenin as novel anticancer agents” (Council of Scientific & Industrial Research, priority 2008, dated 2013)
